Assay results published in patent US10899759B2, “Positive allosteric modulators of the muscarinic acetylcholine receptor M1” (Vanderbilt University, priority 2016, dated 2021).
pEC50: −log10 of the molar value.

Molecular target: T1, human mAChR M1 (Homo sapiens, UniProt P11229)
T1 construct: host or cells: CHO-K1
T1 sequence (P11229 1-460): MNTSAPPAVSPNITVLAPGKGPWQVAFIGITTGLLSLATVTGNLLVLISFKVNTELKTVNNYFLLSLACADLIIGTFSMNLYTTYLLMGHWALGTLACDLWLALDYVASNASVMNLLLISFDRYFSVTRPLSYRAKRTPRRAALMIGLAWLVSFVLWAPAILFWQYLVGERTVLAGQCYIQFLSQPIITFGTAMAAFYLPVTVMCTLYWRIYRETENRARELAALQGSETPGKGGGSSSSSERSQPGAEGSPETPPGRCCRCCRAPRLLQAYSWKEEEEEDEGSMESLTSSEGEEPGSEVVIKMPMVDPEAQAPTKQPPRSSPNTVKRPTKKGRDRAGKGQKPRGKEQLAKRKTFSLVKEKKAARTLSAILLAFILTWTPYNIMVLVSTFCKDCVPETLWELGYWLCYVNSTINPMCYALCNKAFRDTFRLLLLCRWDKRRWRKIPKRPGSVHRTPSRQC
Experiment: mAChR M1 cell-based functional assay (calcium mobilization, Fluo-4, FDSS)
Settings: CHO-K1 cells stably expressing hM1; for Emax: EC20 acetylcholine response, read-out: Human M1 Emax; for pEC50: positive allosteric modulator activity as increase in the EC20 acetylcholine response
Protocol: Chinese hamster ovary (CHO-K1) cells stably expressing rat (r)M1 were purchased from the American Type Culture Collection and cultured according to their indicated protocol. […] To make stable rM2, hM2, rM3, hM4, and rM4 cell lines for use in calcium mobilization assays, these cells also were stably transfected with a chimeric G-protein (Gqi5) (provided by B. R. Conklin, University of California, San Francisco) using Lipofectamine 2000. rM1, hM1, rM3, hM3, rM5, and hM5 cells were grown in Ham's F-12 medium containing 10% heat-inactivated fetal bovine serum (FBS), 20 mM HEPES, and 50 μg/mL G418 sulfate. rM2-Gqi5, hM2-Gqi5, and hM4-Gqi5 cells were grown in the same medium also containing 500 μg/mL Hygromycin B. Stable rM4-Gqi5 cells were grown in DMEM containing 10% heat-inactivated FBS, 20 mM HEPES, 400 μg/mL G418 sulfate, and 500 μg/mL Hygromycin B.
For high throughput measurement of agonist-evoked increases in intracellular calcium, CHO-K1 cells stably expressing muscarinic receptors were plated in growth medium lacking G418 and hygromycin at 15,000 cells/20 μL/well in Greiner 384-well black-walled, tissue culture (TC)-treated, clear-bottom plates (VWR). Cells were incubated overnight at 37° C. and 5% CO2. […] Compound master plates were formatted in an 11 point CRC format (1:3 dilutions) in 100% DMSO with a starting concentration of 10 mM using the BRAVO liquid handler (Agilent). Test compound CRCs were then transferred to daughter plates (240 nL) using the Echo acoustic plate reformatter (Labcyte, Sunnyvale, Calif.) and then diluted into assay buffer (40 μL) to a 2× stock using a Thermo Fisher Combi (Thermo Fisher Scientific, Waltham, Mass.).
Calcium flux was measured using the Functional Drug Screening System (FDSS) 6000 (Hamamatsu Corporation, Tokyo, Japan) as an increase in the fluorescent static ratio. Compounds were applied to cells (20 μL, 2×) using the automated system of the FDSS 6000 at 4 s into the 300 s protocol and the data were collected at 1 Hz. […] Agonist activity was analyzed as a concentration-dependent increase in calcium mobilization upon compound addition. Positive allosteric modulator activity was analyzed as a concentration-dependent increase in the EC20 acetylcholine response. Antagonist activity was analyzed as a concentration-dependent decrease in the EC80 acetylcholine response. Concentration-response curves were generated using a four-parameter logistical equation in XLfit curve fitting software (IDBS, Bridgewater, N.J.) for Excel (Microsoft, Redmond, Wash.) or Prism (GraphPad Software, Inc., San Diego, Calif.).
The compound numbers correspond to the compound numbers used in Table 1.

Compound | Emax [%] | pEC50
Cn1ccc(-c2ccc(Cc3cc(C(=O)NC4CCOCC4)nc4sccc34)cc2)n1 [Compound 87, 4-[[4-(1-methylpyrazol-3-yl)phenyl]methyl]-N-tetrahydropyran-4-yl-thieno[2,3-b]pyridine-6-carboxamide] | 60.4 | 5.67
Cn1ncc2c(Cc3ccc(-c4cscn4)cc3)cc(C(=O)NCC3CCOCC3)nc21 [Compound 29, 1-methyl-N-(tetrahydropyran-4-ylmethyl)-4-[(4-thiazol-4-ylphenyl)methyl]pyrazolo[3,4-b]pyridine-6-carboxamide] | 48.1 | 5.79
Cn1ccc2c(Cc3ccc(-c4cscn4)cc3)cc(C(=O)N[C@@H]3CCOC3)nc21 [Compound 34, 1-methyl-N-[(3R)-tetrahydrofuran-3-yl]-4-[(4-thiazol-4-ylphenyl)methyl]pyrrolo[2,3-b]pyridine-6-carboxamide] | 54.8 | 5.66
Cn1ccc2c(Cc3ccc(-n4cccn4)cc3)cc(C(=O)N[C@H]3CCOC[C@@H]3O)nc21 [Compound 16, N-[(3R,4S)-3-hydroxytetrahydropyran-4-yl]-1-methyl-4-[(4-pyrazol-1-ylphenyl)methyl]pyrrolo[2,3-b]pyridine-6-carboxamide] | 63.4 | 8.00
Cc1nc(-c2ccc(Cc3cc(C(=O)NCC4CCOCC4)nc4c3ccn4C)cc2)co1 [Compound 58, 1-methyl-4-[[4-(2-methyloxazol-4-yl)phenyl]methyl]-N-(tetrahydropyran-4-ylmethyl)pyrrolo[2,3-b]pyridine-6-carboxamide] | 84.1 | 5.98
Cn1ccc(-c2ccc(Cc3cc(C(=O)NC4CC5(COC5)C4)nc4c3ccn4C)cn2)n1 [Compound 149, 1-methyl-4-[[6-(1-methylpyrazol-3-yl)-3-pyridyl]methyl]-N-(2-oxaspiro[3.3]heptan-6-yl)pyrrolo[2,3-b]pyridine-6-carboxamide] | 78.1 | 6.43
Cn1ccc2c(Cc3ccc(-c4cscn4)cc3)cc(C(=O)NC3CC4(COC4)C3)nc21 [Compound 23, 1-methyl-N-(2-oxaspiro[3.3]heptan-6-yl)-4-[(4-thiazol-4-ylphenyl)methyl]pyrrolo[2,3-b]pyridine-6-carboxamide] | 75.4 | 6.85
Cn1ncc2c(Cc3ccc(-n4cccn4)cc3)cc(C(=O)NC3CC4(COC4)C3)nc21 [Compound 6, 1-methyl-N-(2-oxaspiro[3.3]heptan-6-yl)-4-[(4-pyrazol-1-ylphenyl)methyl]pyrazolo[3,4-b]pyridine-6-carboxamide] | 69.9 | 5.76
Cn1ccc(-c2ccc(Cc3cc(C(=O)NCC4CCOC4)nc4sccc34)cn2)n1 (stereo not shown) [Compound 108, 4-[[6-(1-methylpyrazol-3-yl)-3-pyridyl]methyl]-N-(tetrahydrofuran-3-ylmethyl)thieno[2,3-b]pyridine-6-carboxamide] | 59.4 | 6.82
CC1CC(NC(=O)c2cc(Cc3ccc(-n4cccn4)cc3)c3ccsc3n2)CC(C)O1 (stereo not shown) [Compound 73, N-(2,6-dimethyltetrahydropyran-4-yl)-4-[(4-pyrazol-1-ylphenyl)methyl]thieno[2,3-b]pyridine-6-carboxamide] | 68.1 | 6.43
Cn1ccc2c(Cc3ccc(-c4cscn4)cc3)cc(C(=O)N[C@H]3CCOC[C@@H]3O)nc21 [Compound 21, N-[(3R,4S)-3-hydroxytetrahydropyran-4-yl]-1-methyl-4-[(4-thiazol-4-ylphenyl)methyl]pyrrolo[2,3-b]pyridine-6-carboxamide] | 59.3 | 7.70
Cn1ccc(-c2ccc(Cc3cc(C(=O)NC4CCOC(C)(C)C4)nc4c3ccn4C)cn2)n1 (stereo not shown) [Compound 146, N-(2,2-dimethyltetrahydropyran-4-yl)-1-methyl-4-[[6-(1-methylpyrazol-3-yl)-3-pyridyl]methyl]pyrrolo[2,3-b]pyridine-6-carboxamide] | 79.3 | 6.28
COCCNC(=O)c1cc(Cc2ccc(-c3ccn(C)n3)cc2)c2ccsc2n1 [Compound 99, N-(2-methoxyethyl)-4-[[4-(1-methylpyrazol-3-yl)phenyl]methyl]thieno[2,3-b]pyridine-6-carboxamide] | 62.8 | 5.48
CC1CC(NC(=O)c2cc(Cc3ccc(-c4cscn4)cc3)c3ccn(C)c3n2)CC(C)O1 (stereo not shown) [Compound 24, N-(2,6-dimethyltetrahydropyran-4-yl)-1-methyl-4-[(4-thiazol-4-ylphenyl)methyl]pyrrolo[2,3-b]pyridine-6-carboxamide] | 65.3 | 5.95
COCCNC(=O)c1cc(Cc2ccc(-c3cnn(C)c3)nc2)c2ccsc2n1 [Compound 127, N-(2-methoxyethyl)-4-[[6-(1-methylpyrazol-4-yl)-3-pyridyl]methyl]thieno[2,3-b]pyridine-6-carboxamide] | 63.8 | 6.57
Cn1ccc(-c2ccc(Cc3cc(C(=O)NC4CCOC(C)(C)C4)nc4sccc34)cc2)n1 (stereo not shown) [Compound 90, N-(2,2-dimethyltetrahydropyran-4-yl)-4-[[4-(1-methylpyrazol-3-yl)phenyl]methyl]thieno[2,3-b]pyridine-6-carboxamide] | 36.4 | 8.00
CC1CC(NC(=O)c2cc(Cc3ccc(-c4ccn(C)n4)nc3)c3ccn(C)c3n2)CC(C)O1 (stereo not shown) [Compound 148, N-(2,6-dimethyltetrahydropyran-4-yl)-1-methyl-4-[[6-(1-methylpyrazol-3-yl)-3-pyridyl]methyl]pyrrolo[2,3-b]pyridine-6-carboxamide] | 82.4 | 6.03
Cn1cc(-c2ccc(Cc3cc(C(=O)NC4CC5(COC5)C4)nc4c3ccn4C)cn2)cn1 [Compound 48, 1-methyl-4-[[6-(1-methylpyrazol-4-yl)-3-pyridyl]methyl]-N-(2-oxaspiro[3.3]heptan-6-yl)pyrrolo[2,3-b]pyridine-6-carboxamide] | 87.1 | 6.85
Cn1cc(-c2ccc(Cc3cc(C(=O)NCC4CCOCC4)nc4sccc34)cn2)cn1 [Compound 119, 4-[[6-(1-methylpyrazol-4-yl)-3-pyridyl]methyl]-N-(tetrahydropyran-4-ylmethyl)thieno[2,3-b]pyridine-6-carboxamide] | 54.8 | 7.22
Cn1cc(-c2ccc(Cc3cc(C(=O)NC4CCOC(C)(C)C4)nc4sccc34)cn2)cn1 (stereo not shown) [Compound 115, N-(2,2-dimethyltetrahydropyran-4-yl)-4-[[6-(1-methylpyrazol-4-yl)-3-pyridyl]methyl]thieno[2,3-b]pyridine-6-carboxamide] | 59.7 | 7.30
Cn1ccc2c(Cc3ccc(-c4nccs4)cc3)cc(C(=O)NCC3CCOCC3)nc21 [Compound 68, 1-methyl-N-(tetrahydropyran-4-ylmethyl)-4-[(4-thiazol-2-ylphenyl)methyl]pyrrolo[2,3-b]pyridine-6-carboxamide] | 37.9 | 5.84
O=C(N[C@H]1CCCC[C@@H]1O)c1cc(Cc2ccc(-n3cccn3)cc2)c2ccsc2n1 [Compound 69, N-[(1S,2S)-2-hydroxycyclohexyl]-4-[(4-pyrazol-1-ylphenyl)methyl]thieno[2,3-b]pyridine-6-carboxamide] | 52.9 | 7.52
Cn1cc(-c2ccc(Cc3cc(C(=O)N[C@H]4CCCC[C@@H]4O)nc4sccc34)cn2)cn1 [Compound 113, N-[(1S,2S)-2-hydroxycyclohexyl]-4-[[6-(1-methylpyrazol-4-yl)-3-pyridyl]methyl]thieno[2,3-b]pyridine-6-carboxamide] | 60.5 | 6.09
